Data taken from patent US20080058280A1, “Treatment of Lymphoma Using 10-Propargyl-10-Deazaaminopterin and Gemcitabine” (SLOAN-KETTERING INSTITUTE FOR CANCER RESEARCH, priority 2004, published 2008).

How the values were obtained:
[1] = test system: HT (Diffuse large B cell); assay: Growth inhibition in vitro, 5 day exposure (XTT or Alamar blue); assay type: cell-based; settings: Homo sapiens, 120 h, 5 day drug exposure
Procedure: (§1) A PDX preparation prepared in accordance with Example 1 and an MTX preparation were tested for cytotoxicity against a panel of five human lymphoma cell lines. Experiments were performed as described previously. (Sirotnak et al., Cancer Chemother. Pharmacol. 12: 18-25 (1984). In brief, 2.5 to 5×10^3 cells were plated per well in 96-well flat bottom plates. Drug was added in a 0.9% NaCl solution (pH 7.0) over a range of concentrations, and cells were continuously exposed to drug for 5 days. Colorimetric dye (XTT or Alamar blue) was added for an addition period of time (XTT dye, 6 hours, Alamar blue, 24 hours). Each plate was then read on an automated plate reader at 590 nm. The percentage of inhibition was calculated as growth of cells exposed to drug divided by growth of controls (cells incubated with media only). IC50 values were determined as the drug concentrations at which cell growth was inhibited 50% as compared to controls. Experiments were repeated as lest three times. Experiments were also conducted with continuous drug exposures lasting for 3 and 4 days with results similar to the 5 day results.

[2] = test system: Hs445 (Hodgkin's disease); assay: as above; assay type: cell-based; settings: Homo sapiens, Hs 445, 120 h, 5 day drug exposure
Procedure: as §1

[3] = test system: RL (Transformed follicular); assay: as above; assay type: cell-based; settings: Homo sapiens, 120 h, 5 day drug exposure
Procedure: as §1

[4] = test system: Raji (Burkitt's); assay: as above; assay type: cell-based; settings: Homo sapiens, 120 h, 5 day drug exposure
Procedure: as §1

[5] = test system: SKI-DLCL-1 (Diffuse large B Cell); assay: as above; assay type: cell-based; settings: Homo sapiens, 120 h, 5 day drug exposure
Procedure: A PDX preparation prepared in accordance with Example 1 and an MTX preparation were tested for cytotoxicity against a panel of five human lymphoma cell lines. Experiments were performed as described previously. (Sirotnak et al., Cancer Chemother. […] Colorimetric dye (XTT or Alamar blue) was added for an addition period of time (XTT dye, 6 hours, Alamar blue, 24 hours). Each plate was then read on an automated plate reader at 590 nm. The percentage of inhibition was calculated as growth of cells exposed to drug divided by growth of controls (cells incubated with media only). […] Experiments were repeated as lest three times.

[6] = test system: human HT (diffuse large B cell) non-Hodgkin's lymphoma xenografts; assay: Subcutaneous lymphoma xenograft treatment; assay type: in vivo
Description: (§2) In order to study the effects of PDX on lymphoma growth in vivo, subcutaneous transplantation models in NOD/SCID mice were generated using three established human lymphoma cell line representative of aggressive transformed FL (RL) and de novo extranodal DLBCL (HT; SKI-DLCL-1) histologies. Six to eight week old non-obsese diabetic severe combined immunodeficient (NOD/SCID) mice (Jackson Laboratories, Bar Harbor, Me.) were sub-lethally irradiated with […] from a gamma source and inoculated with 10×10^6 lymphoma cells via a subcutaneous route. When tumor volumes approached 100 mm^3, mice were divided into three groups, averaging 3-8 mice per group. Mice were treated with normal saline or the maximum tolerated dose (MTD) of MTX (40 mg/kg) or PDX (60 mg/kg) via an intraperitoneal route twice weekly for two weeks (four total doses). […] (Sirotnak, et al., Cancer Chemother. Pharmacol. 12: 26-30 (1984); Sirotnak et al., Cancer Chemother. Pharmacol. 42: 313-318 (1998).
(§3) Engraftment rates in this experiment ranged from 80 to 90%. Palpable tumors formed under the skin approximately 7-10 days after inoculation and were readily measurable with calipers. Mice with subcutaneous lymphoma growths survived an average of 40-50 days after inoculation.

[7] = test system: human RL (transformed follicular) non-Hodgkin's lymphoma xenografts; assay: Subcutaneous lymphoma xenograft treatment; assay type: in vivo
Description: as §2, §3

[8] = test system: human SKI-DLCL-1 (de novo diffuse large B cell) non-Hodgkin's lymphoma xenografts; assay: Subcutaneous lymphoma xenograft treatment; assay type: in vivo; settings: SKI-DLCL-1 xenografts
Description: as §2, §3

[9] = test system: subcutaneous tumors of SKI; assay: Preliminary combination xenograft experiment; assay type: in vivo, irradiated NOD-SCID mice; settings: for tumor response (in words): MTX 40 mg/kg (MTD), Ara-C 300 mg/kg (MTD), or combination at one-half the MTD
Procedure: Given the experience that SKI-DLCL-1 is the most PDX resistant line in the panel, it was selected for these in vivo synergy experiments. […] All animals were treated with the maximum tolerated dose (MTD) of each drug, save the combination studies.

[10] = test system: SKI-DLBCL-1 xenograft; assay: Second combination xenograft experiment (FIG. 5); assay type: in vivo, SCID beige mice; settings: PDX and Gem at one-quarter of the MTD (15 mg/kg); MTX (60 mg/kg) alone, Ara-C (300 mg/kg) alone or both
Procedure: The same type of test was repeated to assess the in vivo efficacy of using combination therapies. […] Schedule dependent treatment was also determined by pretreating animals with PDX or MTX followed 24 hours later with Gem or Ara-C, respectively. One cohort of animals was treated with Gem followed by PDX. In all cases, the control animals received intraperitoneal injections of normal saline.
Tumor bearing mice were assessed for weight loss and tumor volume at least twice weekly for the duration of the experiment. The data are expressed as the average tumor volume (mm3) per group as a function of time. Tumors were assessed by measuring the two largest perpendicular axes (l=length, w=width) with standard calipers. Tumor volume was calculated using the formula 4/3 πr^3 where r=(l+w)/4. Animals were sacrificed when one dimensional tumor diameter exceeded 2.0 cm, or after loss of more than 10% of their body weight in accordance with institutional guidelines. Animals were housed in standard shoe box cages in temperature and humidity constant rooms on a 12 hour light and dark cycle. Food and water were supplied ad libitum. Animals were maintained in core animal facilities under an institute approved animal protocol.

[11] = test system: SKI-DLBCL-1 xenografts; assay: TUNEL immunohistochemical staining for apoptosis in xenografts; assay type: in vivo, mice; settings: day 21; MTX 40 mg/kg or PDX 60 mg/kg on days 0, 3, 7 and 10
Procedure: Immunohistochemical staining for apoptosis as measured by terminal deoxynucleotide transferase-mediated nick end-labeling (TUNEL) was performed on SKI-DLBCL-1 xenografts from mice sacrificed at day 21 following initiation of antifolate therapy. Mice received four doses of saline, MTX (40 mg/kg) or PDX (60 mg/kg) on days 0, 3, 7 and 10.

[12] = cited from earlier work; for weight loss at the MTD: nude mice
[13] = test system: SKI-DLBCL cells; assay: Cell cycle analysis (propidium iodide binding); assay type: cell-based, human; settings: result in words
Procedure: All drugs were assayed at equimolar concentrations (i.e. 1 nM). The incubation conditions were modeled after the in vitro cytotoxicity experiments. Single agent drugs or combinations of all drugs studied without schedule considerations were incubated for 72 hours, while drugs that were studied in some schedule were introduced in a 24+48 incubation scheme (i.e. drug B added 24 hours following drug A, then incubated for an additional 48 hours for a total incubation time of 72 hours). […] In addition to monitoring apoptosis, cell cycle kinetic analyses were also performed on all treated cells based the propidium iodide binding.

SMILES: CN(Cc1cnc2nc(N)nc(N)c2n1)c1ccc(C(=O)N[C@@H](CCC(=O)O)C(=O)O)cc1 [MTX, methotrexate]
- IC50 [1]: 0.035 ± 0.005 µM
- IC50 [2]: 0.032 ± 0.0022 µM
- IC50 [3]: 0.21 ± 0.04 µM
- IC50 [4]: 0.016 ± 0.0008 µM
- IC50 [5]: 0.048 ± 0.0025 µM
- tumor response (in words) ([6]; MTX 40 mg/kg): modest growth delay as compared to controls, there was no tumor regression
- tumor response (in words) ([7]; MTX 40 mg/kg): small reductions in growth an no regressions
- tumor response (in words) ([8]; MTX 40 mg/kg): small reductions in growth an no regressions
- tumor response (in words) [9]: modest growth delay compared to the control
- tumor response (in words) [10]: sacrificed early due to excessive tumor growth
- apoptotic cells in tumor tissue (TUNEL) [11]: little or no evidence of apoptotic cells
- weight loss at the MTD [12]: less than 10%

SMILES: Nc1ccn([C@@H]2O[C@H](CO)[C@@H](O)[C@@H]2O)c(=O)n1 [Ara-C, cytarabine]
- tumor response (in words) [9]: modest growth delay compared to the control
- tumor response (in words) [10]: sacrificed early due to excessive tumor growth

SMILES: C#CCC(Cc1cnc2nc(N)nc(N)c2n1)c1ccc(C(=O)N[C@@H](CCC(=O)O)C(=O)O)cc1 (stereo partly shown) [PDX, 10-Propargyl-10-deazaminopterin]
- Complete Regression (no/total) ([6]; MTX 40 mg/kg, PDX 60 mg/kg): 8/9
- Avg Tumor Diameter (mm ± SE) ([6]; MTX 40 mg/kg, PDX 60 mg/kg, at the nadir of tumor regression): 0.5 mm
- mice with complete tumor regression ([6]; PDX 60 mg/kg, 8 of 9): 89%
- Tumor Regression (%) ([6]; PDX 60 mg/kg, average tumor regression): 99%
- Complete Regression (no/total) ([7]; MTX 40 mg/kg, PDX 60 mg/kg): 5/9
- Tumor Regression (%) ([7]; PDX 60 mg/kg): 56%
- decrease of tumor volumes from initial volumes ([7]; PDX 60 mg/kg): at least 50%
- mice with tumor regressions ([7]; PDX 60 mg/kg, 5 of 9 mice): 57%
- Complete Regression (no/total) ([8]; MTX 40 mg/kg, PDX 60 mg/kg): 3/10
- Tumor Regression (%) ([8]; PDX 60 mg/kg): 54%
- decrease of tumor volumes from initial volumes ([8]; PDX 60 mg/kg): at least 50%
- mice with tumor regressions / complete remissions ([8]; PDX 60 mg/kg, 3 of 10 mice): 30%
- tumor regrowth, % of initial tumor volumes ([9]; PDX or Gem at 60 mg/kg, by day 44): 739%
- apoptotic cells in tumor tissue (TUNEL) [11]: a high level of apoptotic cells
- maximum tolerated dose (MTD) ([12]; intraperitoneal, twice weekly, four total doses): 60 mg/kg
- weight loss at the MTD [12]: less than 10%

SMILES: Nc1ccn([C@@H]2O[C@H](CO)[C@@H](O)C2(F)F)c(=O)n1 [Gem, 1-(2′,2′-difluoro-β-D-arabinofuranosyl) cytosine]
- fraction of cells in S-phase [13]: fewest
